We go through 1 compound from BindingDB's records for patent US20240116926 (Astrazeneca, 2024).

The IC50 is the point on the concentration scale where inhibition reaches its midpoint.

The assay has as its target T1, Transcriptional enhancer factor TEF-3 [217-434] (Homo sapiens, UniProt Q15561).
T1 construct: 217-434
The experiment in a line: TEAD4 FRET Assay.

T1 sequence (Q15561 217-434): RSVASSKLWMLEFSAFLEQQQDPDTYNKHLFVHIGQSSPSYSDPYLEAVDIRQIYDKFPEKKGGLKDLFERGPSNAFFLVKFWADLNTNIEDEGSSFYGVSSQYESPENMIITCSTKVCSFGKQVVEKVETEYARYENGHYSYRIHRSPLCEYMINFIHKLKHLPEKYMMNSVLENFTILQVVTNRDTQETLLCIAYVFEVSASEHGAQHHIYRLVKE

As for `C=CC(=O)N1C[C@H](C#N)[C@H](Nc2nnc(-c3ccc(C(F)(F)F)cc3)c3ccccc23)C1` (single isomer, unassigned) [US20240116926, Example 29], the IC50 turned out to be 130 nM.
